This note sets out measurements from PubChem BioAssay (NCI).

Experiment in all cases: inhibition of tumour cell growth, NCI panel, 48 h
The subject of assay [1] is SF-268 CNS.
For assay [2], the system named is CAKI-1 renal.
Assay [3] has as its system HCC-2998 colon.
The test system of assay [4] is ACHN renal.
The subject of assay [5] is SK-MEL-5 melanoma.
Assay [6] has as its system SW-620 colon.
In assay [7] the test system is DU-145 prostate.
In assay [8] the test system is BT-549 breast.
Assay [9] has as its system UACC-62 melanoma.
The subject of assay [10] is RXF 393 renal.

Structures are written as SMILES. Values joined by “and” are separate entries in the source; they are usually repeats but may differ in a detail not shown here. Equal entries are not always repeated.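 Results reflect a 48-hour exposure of cells in 96-well plates to compound at five concentrations. At the GI50, growth is halved. The concentration for full growth arrest is given as TGI.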

On to `C[C@]12CC[C@H]3[C@@H](CC=C4C[C@@H](O)CC[C@@]43C)[C@@H]1C/C(=C\c1cccc(OCCN3CCOCC3)c1)[C@@H]2O`, for which the GI50 is 70.9 µM in assay [1]; over 100 µM in [2]; over 100 µM in assay [3]; over 100 µM in assay [4]; 4.98 µM in assay [5]; 28.3 µM in assay [6]. The GI50 in [7] is over 100 µM; in assay [8] it was 27 µM; in assay [9], over 100 µM. Moreover, the TGI is over 100 µM in assay [1]; over 100 µM in assay [2]; over 100 µM in [3]; over 100 µM in assay [4]; 23.3 µM in assay [5]; over 100 µM in assay [6]. Moreover, the TGI is over 100 µM in assay [7], 95.1 µM in assay [8] and over 100 µM in [9].

For the molecule `CC1C(=O)N=C2C(=CN(Cc3ccccc3)c3ccccc32)C(=O)N1C` (stereo not given), the TGI in assay [1], in assay [10], in assay [2], in assay [3], in [4] and in assay [5] was over 100 µM throughout. Besides, the TGI in [6], in assay [7], in assay [8] and in assay [9] was over 100 µM throughout.

Turning to `COc1cc(C)cc2c1OC(c1ccccc1)CC2=O` (stereo not given), the GI50 in [1], in [10], in assay [2], in assay [3], in [4] and in [5] was over 100 µM throughout. Moreover, the GI50 in assay [6], in assay [7], in assay [8] and in assay [9] was over 100 µM each time. Besides, the TGI in assay [1], in assay [10], in assay [2], in assay [3], in assay [4] and in assay [5] was over 100 µM in each case. Also, the TGI in assay [6], in assay [7], in assay [8] and in assay [9] was over 100 µM each time.

With `S=C(Nc1ccccc1)c1ccccn1`, the GI50 is 77.3 µM in [1]; 40.3 µM in assay [10]; 40.3 µM in assay [2]; over 100 µM in [3]; 50.6 µM in [4]; 69.2 µM in assay [5]. The GI50 was 59.4 µM in assay [6], 53 µM in assay [7], 73.9 µM in [8] and 70.7 µM in assay [9]. The TGI in [1], in [10], in assay [2], in [3], in assay [4] and in [5] was over 100 µM each time. For the same molecule, the TGI in assay [6], in assay [7], in [8] and in [9] was over 100 µM throughout.

Take `COc1ccc(/C=C/C(=O)c2ccc(Nc3ncnc4ccccc34)cc2)cc1OC`: the GI50 was 6.55 µM in [1]; 2.2 µM in assay [10]; 16.8 µM in [2]; 3.22 µM in [3]; 13.6 µM in [4]; 3.51 µM in [6]. The GI50 in assay [7] is 8.16 µM; in [8], 3.22 µM; in [9] it was 10.7 µM. Also, the TGI in [1] is over 100 µM; in assay [10], 9.96 µM; in [2], over 100 µM; in assay [3], 11.8 µM; in assay [4], over 100 µM; in assay [6] it was over 100 µM. Further, the TGI in assay [7] is over 100 µM; in assay [8] it was 32 µM; in assay [9], 27.9 µM.

On to `Cc1sc2ncnc(Sc3nc4ccccc4[nH]3)c2c1C`, for which the GI50 in assay [1] was 20.6 µM; in [2], 25.4 µM; in assay [3], 50.4 µM; in assay [4], 24.4 µM; in assay [5], 22 µM; in assay [6] it was 42.3 µM. For the same molecule, the figures for the GI50 in assay [7], in assay [8] and in [9] were 20.8 µM, 27.2 µM and 17.3 µM, respectively. The TGI in [1] was 62.1 µM; in [2], over 100 µM; in assay [3], over 100 µM; in [4], over 100 µM; in assay [5], over 100 µM; in assay [6], over 100 µM. The TGI in assay [7] was 72.4 µM; in assay [8], over 100 µM; in assay [9] it was over 100 µM.

On to `OCCNc1nc(NCCO)nc(Nc2ccc(C3=NN(c4cc(Cl)cc(Cl)c4)C(c4ccc(Cl)cc4)C3)cc2)n1` (stereo not given), for which the GI50 was 1.86 µM in [1]; 1.44 µM in assay [10]; 1.96 µM in assay [3]; 1.55 µM in [4]; 1.81 µM in assay [5]; 2.03 µM in assay [6]. For the same molecule, the GI50 was 1.67 µM in [7], 1.77 µM in assay [8] and 1.72 µM in assay [9]. Further, the TGI amounted to 3.79 µM in [1]; 2.91 µM in [10]; 3.52 µM in [3]; 3.17 µM in [4]; 3.37 µM in [5]; 4.52 µM in assay [6]. The TGI in [7] turned out to be 3.22 µM; in assay [8], 3.8 µM; in assay [9], 3.37 µM.

As to `COc1ccc(C2=NNC(c3ccc(-c4ccc(OC)cc4[N+](=O)[O-])o3)C2)cc1` (stereo not given), the GI50 was 20.3 µM in assay [1]; 20.3 µM in assay [10]; 36.9 µM in assay [3]; 42.2 µM in assay [4]; 72.7 µM in [5]; 78.2 µM in assay [6]. The GI50 in [7] was 36.3 µM; in [8], 26.6 µM; in assay [9] it was 0.691 µM. Further, the TGI in assay [1] was 53.2 µM; in [10], 54.1 µM; in [3], over 100 µM; in assay [4], over 100 µM; in assay [5], over 100 µM; in assay [6], over 100 µM. For the same molecule, the TGI in assay [7] is over 100 µM; in assay [8], 93.5 µM; in assay [9] it was 19.4 µM.

Regarding `O=C(CNC(=O)c1cccc2ccccc12)Nc1ccccc1Oc1cccc(O)c1`, the GI50 in assay [1] is 20.9 µM; in assay [10], 4.12 µM; in [3], over 25 µM; in [4], 17.4 µM; in assay [5], 1.86 µM; in [6], 3.12 µM. In addition, the GI50 in assay [7] was 9.47 µM; in assay [8], over 25 µM; in assay [9], 1.62 µM. In addition, the TGI in [1] was over 25 µM; in [10], 15.4 µM; in assay [3] it was over 25 µM; in [4], over 25 µM; in assay [5], over 25 µM; in assay [6] it was over 25 µM. Besides, the TGI in assay [7], in assay [8] and in assay [9] was over 25 µM in each case.

For the molecule `COc1ccc(-c2ccc(/C=N/n3cn[nH]c3=S)o2)c([N+](=O)[O-])c1`, the GI50 was 29.1 µM in [1]; 32.2 µM in [10]; 32.6 µM in [2]; 38.9 µM in assay [3]; 50.7 µM in assay [4]; 29.8 µM in [6]. Also, the GI50 in assay [7] is 80.5 µM; in assay [8] it was 30.1 µM; in [9], 41.1 µM. Also, the TGI in assay [1], in assay [10], in [2], in assay [3], in assay [4] and in assay [6] was over 100 µM in each case. Further, the TGI in assay [7], in assay [8] and in assay [9] was over 100 µM throughout.

In the case of `CCOC(=O)C1CCC/C1=N\N=C(N)N` (stereo not given) (tested in a mixture with another compound), the TGI in assay [1], in assay [10], in assay [3], in assay [4], in [5] and in [6] was over 100 µM each time. For the same molecule, the TGI in [7], in assay [8] and in assay [9] was over 100 µM throughout.

As for `Nc1cc(N)c2nc(-c3ccccc3)c(Nc3ccc(F)cc3)nc2c1`, the GI50 was 13.2 µM in assay [1]; 8.71 µM in [10]; 19.2 µM in assay [2]; 10.3 µM in assay [4]; 14.4 µM in [5]; 13.6 µM in assay [6]. Moreover, the GI50 was 12 µM in [7], 11.9 µM in assay [8] and 16.1 µM in [9]. The TGI in [1] came to 41 µM; in assay [10], 28.8 µM; in assay [2], 40.4 µM; in assay [4], 22.5 µM; in [5], 33 µM; in [6] it was 39.2 µM. For the same molecule, the TGI turned out to be 28.3 µM in assay [7], 27.2 µM in [8] and 31.7 µM in [9].

Turning to `O=C(O)CC(Cc1ccc2c(c1)OCO2)C(=O)O` (stereo not given), the TGI in assay [1], in [10], in [3], in assay [4], in [5] and in [6] was over 100 µM in each case. Moreover, the TGI in [7], in [8] and in [9] was over 100 µM each time.

In the case of `CCCCCCCCCCCCCCCCC(C(=O)O)C(O)(CC(=O)O)C(=O)O` (stereo not given), the TGI was 70.3 µM in assay [1]; 53.4 µM in [10]; 46.3 µM in assay [2]; over 100 µM in assay [4]; over 100 µM in assay [5]; 46.6 µM in [6]. Further, the values for the TGI in assay [7], in assay [8] and in assay [9] were over 100 µM, 51.3 µM and 48.9 µM, respectively.

On to `Cc1cccc(C(C)O)n1` (stereo not given), for which the TGI in [1], in assay [2], in assay [3], in assay [4], in [5] and in [6] was over 100 µM in each case. Moreover, the TGI in assay [7], in [8] and in [9] was over 100 µM each time.

Consider `CCOC(=O)c1sc(=S)c2c(C(=O)c3ccccc3)c(C(=O)c3ccccc3)sc2c1C(=O)OCC`, for which the GI50 in assay [1] is 3.55 µM; in assay [10] it was 4.48 µM; in assay [2] it was 3.93 µM; in [4], 3 µM; in assay [5] it was 2.38 µM; in assay [6] it was 4.25 µM. The figures for the GI50 in assay [7], in assay [8] and in [9] were 4.07 µM, 3.43 µM and 2.99 µM, respectively. The TGI in assay [1] is 71.8 µM; in assay [10] it was over 100 µM; in assay [2], over 100 µM; in [4] it was 9.32 µM; in [5], 5.76 µM; in [6], over 100 µM. For the same molecule, the TGI in assay [7] was over 100 µM; in assay [8] it was 12.6 µM; in assay [9], 17.8 µM.

As for `COc1cc2c(cc1OCCCCCOc1cc(-c3ccc(F)cc3)nc(C)n1)N=C[C@@H]1CCCN1C2=O`, the GI50 in [1] was over 32.5 µM; in [10], over 32.9 µM; in [2], over 41.7 µM; in assay [4] it was over 37.6 µM; in assay [6], over 32.1 µM; in assay [7], over 39.8 µM. The figures for the GI50 in assay [8] and in assay [9] were over 32.8 µM and over 38.1 µM, respectively. Further, the TGI in [1] is over 65.2 µM; in assay [10], over 54.3 µM; in [2], over 66.9 µM; in assay [4], over 68.6 µM; in [5], over 26.2 µM; in [6], over 87.1 µM. Also, the TGI in [7] was over 87.4 µM; in [8] it was over 61.1 µM; in [9], over 56.2 µM.

As to `CCCCCCC(C)CC(CCCCCC)NCCOC(=O)c1ccc([N+](=O)[O-])cc1` (stereo not given), the TGI in assay [1] was 30.7 µM and 27.6 µM; in assay [2] it was 25.3 µM and 18.4 µM; in assay [3], 42.8 µM and 9.35 µM; in [4] it was 30.5 µM and 28.1 µM; in assay [5], 28.4 µM and 23.4 µM; in [6], 28.8 µM and 28.5 µM. For the same molecule, the TGI is 30.1 µM and 25.6 µM in assay [7]; 31.6 µM and 30.5 µM in [8]; 28.7 µM and 26.6 µM in assay [9]. In addition, the GI50 in assay [2] is 12.2 µM and 4.21 µM.
